These results are taken from patent US8883763B2 (Universite Joseph Fourier, priority 2010, dated 2014).

The target of data set [1] is T1, PP1α (PP1CA) (Oryctolagus cuniculus, UniProt P62139).
T1 construct: purchased New England Biolabs P0754
The experiment in a line: Protein phosphatase test (PP1 activity, DiFMUP fluorescent substrate). In kind it is biochemical. The following applies: PP1CA at 80 mU, fluorescent substrate (50 μM), molecules from 50 μM to 50 nM; read-out: PP1 Inhibition IC50. How it is done: FIG. 13 presents the graph showing the inhibition of the PP1Cα activity by compound 6 in vitro. PP1Cα (New England Biolabs, 30 mU/well) was incubated in the presence of compound 6 at different concentrations and a fluorescent substrate, diFMUP.
Determination of the 1050 was carried out with PP1CA at 80 mU in the presence of a fluorescent substrate
(50 μM) and different concentrations of molecules from 50 μM to 50 nM.
For the activity tests, PP1α (New England Biolabs # P0754) was used at a final concentration of 30 mU or 80 mU for the screening of all the analogues. 6,8-difluoro-4-methylumbelliferyl phosphate (DiFMUP, Invitrogen # D6567) was used as fluorescent substrate at a concentration of […]. All the tests were carried out in a final volume of 100 μl, at 37° C. in 96-microwell plates (Greiner #655096).
Compound 6, combretastatin A4 (CA-4) as well as all the analogues were diluted in 50 μl of PP1 buffer (100 mM Tris-HCl, pH 7.5, 4 mM DTT, 0.2 mM EDTA, 0.5 mM MnCl2) from 50 μM to 50 nM. Corresponding quantities of DMSO were added to control wells. PP1α (30 or 80 mU in 30 μl of PP1 buffer) was added to each well. After incubating for 15 minutes at AT, the substrate was added (in 20 μl of PP1 buffer). After incubating for 20 minutes at 37° C., the fluorescence was measured in a plate fluorometer at 355-460 nm in order to assay the phosphatase activity. The test was carried out three times in duplicate for each condition.

Data set [2] has as its system HeLa cells. Briefly: Indirect immunofluorescence: effect on HeLa cells (mitotic arrest, microtubule depolymerization). In kind it is cell-based, human. Also on record: key to Effect on Hela at 25 μM / Effect on Hela at 100 μM / Effect on Hela at 50 and 100 μM / Effect on Hela at 50 μM: —: −: no activity on the cells at 25 μM (if there is an effect at high concentrations, this is specified in the table).; *: weak activity (MA and/or slight depolymerization of the MTs and/or slight inhibition of proliferation),; **: average activity (MA and/or moderate depolymerization of the MTs and/or moderate inhibition of proliferation),; ***: strong activity (MA and/or pronounced depolymerization of the MTs and/or pronounced inhibition of proliferation),; ****: very strong activity (MA and/or very pronounced depolymerization of the MTs and/or strong inhibition of proliferation). To be noted: 24 hours; for Effect on Hela at 25 μM: mitotic index and/or depolymerization of the MTs. The procedure: The cells were cultured on slides in 24-well plates and incubated for 24 hours with molecule 6 at different concentrations from 1 to 10 μM.
Corresponding quantities of DMSO were added to the culture medium in the control wells.
The cells were fixed in a solution of PBS with 4% paraformaldehyde (PFA) and 0.1% glutaraldehyde (GA), for 15 minutes and centrifuged at 300 g for the last 10 minutes of the fixing. The slides were rinsed in PBS and the free aldehyde groups were reduced by two successive 5-minute incubations in PBS containing 1 mg/ml of NaBH4.
After one washing with PBS then another with PBST (PBS with 0.5% triton-X-100), the cells are incubated for 30 minutes at ambient temperature with anti α-tubulin monoclonal antibody solution (DM1A clone, Sigma # T6199) diluted to 1:200 in PBST. After 3 10-minute washings with PBST, the cells are incubated for 30 minutes at ambient temperature in a solution of goat anti-mouse polyclonal antibodies coupled with Alexa 488 (1:1000, Molecular Probes # A-11029) and phalloidin coupled with Texas red to label the actin (1:2000, Molecular Probes # T7471), in PBST also containing Hoechst 33258 (1 μg/ml) for labelling the DNA. After 3 10-minute washings in PBST, the slides are mounted on plates in Fluorsave™ mounting medium (Calbiochem #345789) and are observed and analyzed using an Axiovert 200M inverted fluorescence microscope (Zeiss®). The images are produced with a Plan-Apochromat 63× oil objective (Zeiss®) by means of a Coolsnap HQ camera (Roper Scientifics®) and with Metamorph acquisition software (Universal Imaging™ Corporation).
In order to evaluate the effect of the analogues of compound 6 on PHFs and HeLa cells, the immunofluorescence technique described above was used and adapted to a 96-well dish format. The cells were seeded in glass-bottomed 96-well dishes and incubated for 24 hours in the presence of different concentrations of molecules from 100 μM to 50 nM. And in the same way as described above, the cells were fixed and immunolabelled. Analysis of the phenotypes as well as counting the mitotic cells were carried out with the same microscope but using a ×40 objective (Olympus). The molecules were compared with each other with respect to the mitotic arrest induced on PHFs and HeLa cells at 25 and 0.3 μM.
The mitotic index and/or the depolymerization of the MTs were evaluated at 25 μM.

The test system of data set [3] is HMEC cells. Briefly: Proliferation of HMEC cells (GI50). It is filed as cell-based. To be noted: Homo sapiens, 120 h, 50 μM to 1 nM for 5 days. How it is done:
The HMECs were seeded at 10% confluence and incubated with the molecules at different concentrations (from 50 μM to 1 nM) for 5 days. The GI50 (50% Growth Inhibition) defines the concentration inducing a 50% reduction in proliferation with respect to the control.

In data set [4] the test system is bovine brain tubulin. The experiment in a line: In vitro tubulin polymerization test (turbidimetry at 350 nm). In kind it is biochemical. To be noted: molecules at 50 μM, calculated at t=3000 s, DMSO control = 100%. The procedure:
Tubulin was purified from bovine brain using the polymerization-depolymerization process described by (Castoldi M and Popov A V. Protein Expr Purif. 2003, 32(1): pp 83-8).
The in vitro tubulin polymerization tests (at 50 μM) were carried out in the presence of GTP 1 mM in BRB80 buffer (80 mM K-PIPES pH 6.8, 1 mM MgCl2, 1 mM EGTA) at 37° C. The tests were carried out in 96-microwell plates (half-wells) (Costar plates, Corning #3695), in triplicate with a final volume of 70 μl. Tubulin assembly was carried out in the presence of compound 6 or its analogues (all used at a concentration of 50 μM) and was monitored by turbidimetry measurement at 350 nm using a spectrophotometer (Spectramax More, Molecular Devices).
Measurement of the effect of a molecule on polymerization was calculated at t=3000 s taking the value of the control at the same time as being equal to 100%.

T1 sequence (P62139 whole entry): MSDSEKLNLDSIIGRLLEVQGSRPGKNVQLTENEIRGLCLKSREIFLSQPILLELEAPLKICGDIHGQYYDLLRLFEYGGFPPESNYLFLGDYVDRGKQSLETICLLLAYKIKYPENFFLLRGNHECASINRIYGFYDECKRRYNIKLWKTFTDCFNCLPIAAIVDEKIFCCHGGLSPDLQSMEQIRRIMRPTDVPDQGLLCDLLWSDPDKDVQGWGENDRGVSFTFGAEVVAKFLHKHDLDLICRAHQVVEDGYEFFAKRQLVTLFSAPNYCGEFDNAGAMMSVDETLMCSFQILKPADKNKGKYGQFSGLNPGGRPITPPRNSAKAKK

With `COc1ccc(-c2cc3ccc(OC)cc3c(=S)[nH]2)cc1` [Compound 12, 7-Methoxy-3-(4-methoxyphenyl)isoquinoline-1(2H)-thione], the melting point is 188 to 190 °C. In addition, the IC50 in data set [1] is ≤ 9 µM. In data set [2], the “Effect on Hela at 25 μM” value is reported as “—” and the “Effect on Hela at 100 μM” value is given as “*”. Besides, the GI50 in data set [3] lay in the range of 1 to 25 µM. The Tubulin polymerization inhibition entry in data set [4] was “++ ((++) signifies that the molecule induces tubulin assembly inhibition in vitro comprised between 26 and 50% of the DMSO control.)”.
`COc1ccc(-c2cc3ccc(OC)cc3c(S(=O)(=O)O)n2)cc1` [Compound 13, 7-methoxy-3-(4-methoxyphenyl)isoquinoline-1-sulphonic acid] registered a melting point of 226 to 228 °C. In addition, the 50% inhibitory concentration (IC50) in data set [1] is > 50 µM. In data set [2], the “Effect on Hela at 25 μM” value is reported as “—” and the “Effect on Hela at 100 μM” value is listed as “*”. The GI50 in data set [3] is > 50 µM. Further, the Tubulin polymerization inhibition result in data set [4] was “++ ((++) signifies that the molecule induces tubulin assembly inhibition in vitro comprised between 26 and 50% of the DMSO control.)”.
`COc1ccc(-c2[nH]c(=O)c3cc(OC)ccc3c2Br)cc1` [Compound 15, 4-Bromo-7-methoxy-3-(4-methoxyphenyl)isoquinoline-1(2H)-one] showed a melting point of 240 to 242 °C. In data set [1], the IC50 is > 50 µM. Also, the “Effect on Hela at 25 μM” value in data set [2] is reported as “***”. Also, the GI50 in data set [3] lay within 0.1 to 1 µM. In addition, the Tubulin polymerization inhibition result in data set [4] was “++ ((++) signifies that the molecule induces tubulin assembly inhibition in vitro comprised between 26 and 50% of the DMSO control.)”.
Take `COc1ccc(-c2[nH]c(=O)c3cc(OC)ccc3c2I)cc1` [Compound 16, 4-Iodo-7-methoxy-3-(4-methoxyphenyl)isoquinoline-1(2H)-one]: the melting point was 216 to 218 °C. Moreover, the IC50 in data set [1] was > 50 µM. In addition, in data set [2], the “Effect on Hela at 25 μM” value is given as “***”. Besides, the 50% growth inhibitory concentration (GI50) in data set [3] lay within 0.1 to 1 µM. Moreover, the Tubulin polymerization inhibition result in data set [4] is “+++ ((+++) signifies that the molecule induces tubulin assembly inhibition in vitro of more than 50% with respect to the DMSO control.)”.
In the case of `COc1ccc(-c2nc(Cl)c3cc(OC)ccc3c2[N+](=O)[O-])cc1` [Compound 17, 1-Chloro-7-methoxy-3-(4-methoxyphenyl)-4-nitroisoquinoline], the melting point was in the range of 196 to 198 °C. In data set [1], the IC50 was > 50 µM. Also, the “Effect on Hela at 25 μM” value in data set [2] is “—”. The same molecule came in with a concentration for 50% growth inhibition (GI50) in data set [3] of 25 to 50 µM. Moreover, in data set [4], the Tubulin polymerization inhibition entry is “++ ((++) signifies that the molecule induces tubulin assembly inhibition in vitro comprised between 26 and 50% of the DMSO control.)”.
Turning to `COc1ccc(-c2[nH]c(=S)c3cc(OC)ccc3c2[N+](=O)[O-])cc1` [Compound 18, 7-Methoxy-3-(4-methoxyphenyl)-4-nitroisoquinoline-1(2H)-thione], the melting point is 226 to 228 °C. The half-maximal inhibitory concentration (IC50) in data set [1] was in the range of 10 to 24 µM. Further, in data set [2], the “Effect on Hela at 25 μM” value was “****”. The molecule also returned a concentration for 50% growth inhibition (GI50) in data set [3] of 1 to 25 µM. Also, the Tubulin polymerization inhibition entry in data set [4] is reported as “+++ ((+++) signifies that the molecule induces tubulin assembly inhibition in vitro of more than 50% with respect to the DMSO control.)”.
Turning to `COc1ccc(-c2nc(OC)c3cc(OC)ccc3c2[N+](=O)[O-])cc1` [Compound 19, 1,7-Dimethoxy-3-(4-methoxyphenyl)-4-nitroisoquinoline], the melting point lay within 176 to 178 °C. Moreover, in data set [1], the IC50 fell in the range of 25 to 50 µM. For the same molecule, in data set [2], the “Effect on Hela at 25 μM” value is “—” and the “Effect on Hela at 100 μM” value was “**”. Besides, the GI50 in data set [3] is > 50 µM. Further, in data set [4], the Tubulin polymerization inhibition result was “+ ((+) signifies that the molecule induces tubulin assembly inhibition in vitro comprised between 6 and 25% of the DMSO control.)”.
For the molecule `COc1ccc(-c2nc(Sc3ccccc3)c3cc(OC)ccc3c2[N+](=O)[O-])cc1` [Compound 20, 7-Methoxy-3-(4-methoxyphenyl)-4-nitro-1-(phenylethio)isoquinoline], the melting point fell in the range of 169 to 171 °C. For the same molecule, the 50% inhibitory concentration (IC50) in data set [1] was in the range of 25 to 50 µM. Besides, in data set [2], the “Effect on Hela at 25 μM” value is “—”. For the same molecule, the “Effect on Hela at 50 and 100 μM” value in data set [2] (50 and 100 μM) was “*”. Also, the 50% growth inhibitory concentration (GI50) in data set [3] was > 50 µM. Moreover, in data set [4], the Tubulin polymerization inhibition entry is “++ ((++) signifies that the molecule induces tubulin assembly inhibition in vitro comprised between 26 and 50% of the DMSO control.)”.
As to `COc1ccc(-c2nc(N)c3cc(OC)ccc3c2[N+](=O)[O-])cc1` [Compound 71, 1-Amino-7-methoxy-3-(4-methoxyphenyl)-4-nitroisoquinoline], the IC50 in data set [1] is > 50 µM. The “Effect on Hela at 25 μM” value in data set [2] is “—”. This molecule showed a concentration for 50% growth inhibition (GI50) in data set [3] of 25 to 50 µM. Besides, in data set [4], the Tubulin polymerization inhibition result was “+ ((+) signifies that the molecule induces tubulin assembly inhibition in vitro comprised between 6 and 25% of the DMSO control.)”.
Consider `COc1ccc2c([N+](=O)[O-])c(-c3ccc(O)cc3)[nH]c(=O)c2c1` [Compound 72, 3-(4-hydroxyphenyl)-7-methoxy-4-nitroisoquinolin-1(2H)-one], for which, in data set [1], the concentration for half-maximal inhibition (IC50) lay within 10 to 24 µM. The “Effect on Hela at 25 μM” value in data set [2] is reported as “****”. The same molecule came in with a concentration for 50% growth inhibition (GI50) in data set [3] of 0.1 to 1 µM. The Tubulin polymerization inhibition result in data set [4] was “++ ((++) signifies that the molecule induces tubulin assembly inhibition in vitro comprised between 26 and 50% of the DMSO control.)”.
Regarding `COc1ccc2c([N+](=O)[O-])c(-c3ccc(OC(=O)OC(C)(C)C)cc3)[nH]c(=O)c2c1` [Compound 73, tert-butyl 4-(7-methoxy-4-nitro-1-oxo-1,2-dihydroisoquinolin-3-yl)phenyl carbonate], in data set [1], the IC50 was 10 to 24 µM. Further, the “Effect on Hela at 25 μM” value in data set [2] is listed as “***”. For the same molecule, in data set [3], the 50% growth inhibitory concentration (GI50) lay in the range of 1 to 25 µM. Further, the Tubulin polymerization inhibition result in data set [4] is listed as “— ((−) signifies that the molecule induces little or no tubulin assembly inhibition in vitro: 0+ or − −5% of the DMSO control.)”.
